Patent US20250145665A1, “MACROCYCLIC PEPTIDES USEFUL AS MODULATORS OF TNF ALPHA” (Bristol-Myers Squibb Company, priority 2023, published 2025)
Starred links: 1 amine or outer side, 2 acyl side, 3 side chain; linkers in the order of their positions; H or OH if unused. Positions of bridges follow the written chain, without caps; N, C: chain ends. Non-standard residues stand in square brackets, D forms with d. Residues, ends and D or L forms follow the SMILES beside them. *: point of attachment. Bip(4'-NHCO-C6H4-3-CH2COOH) = N[C@@H](Cc1ccc(-c2ccc(NC(=O)c3cccc(CC(=O)O)c3)cc2)cc1)C(=O)O; Bip(4'-NH) = O=C([C@H](Cc1ccc(-c2ccc(N[*:3])cc2)cc1)N[*:1])[*:2]; dArg(ω-Bn(3-CH2OH)) = N=C(NCCC[C@@H](N)C(=O)O)NCc1cccc(CO)c1; Indazole3carbonyl(1-CH2COOH) = O=C(O)Cn1nc(C(=O)*)c2ccccc21; Bip(4'-COOH) = N[C@@H](Cc1ccc(-c2ccc(C(=O)O)cc2)cc1)C(=O)O; Bip(4'-NHAc) = CC(=O)Nc1ccc(-c2ccc(C[C@H](N)C(=O)O)cc2)cc1; Phe(3-CH2NH2) = O=C([C@H](Cc1cccc(CN[*:3])c1)N[*:1])[*:2]; X27 = N=C(NCCC[C@@H](N[*:1])C(=O)[*:2])NCCc1ccc2c(c1)OCO2; X68 = N=C(NCCC[C@@H](N[*:1])C(=O)[*:2])NCc1ccc(O)c(O)c1; Ala(morpholin-4-yl) = N[C@@H](CN1CCOCC1)C(=O)O; Phe(4-CH2NH2) = NCc1ccc(C[C@H](N)C(=O)O)cc1; Bip = N[C@@H](Cc1ccc(-c2ccccc2)cc1)C(=O)O; Phe(4-Me) = Cc1ccc(C[C@H](N)C(=O)O)cc1; Val(3-OH) = CC(C)(O)[C@H](N)C(=O)O; X86 = O=C(O)Cn1ccc2cc(C(=O)*)ccc21; h4Pal = N[C@@H](CCc1ccncc1)C(=O)O; 2Pal = N[C@@H](Cc1ccccn1)C(=O)O; 3Pal = N[C@@H](Cc1cccnc1)C(=O)O; Cha = N[C@@H](CC1CCCCC1)C(=O)O; Orn = NCCC[C@H](N)C(=O)O; Aze = O=C(O)[C@@H]1CCN1; Sar = CNCC(=O)O

target: TNFα (Homo sapiens, UniProt P01375); assay: TNF-Induced HEK-Blue Assay; format: cell-based; settings: not given
Sequence (P01375 77-233 limits assumed): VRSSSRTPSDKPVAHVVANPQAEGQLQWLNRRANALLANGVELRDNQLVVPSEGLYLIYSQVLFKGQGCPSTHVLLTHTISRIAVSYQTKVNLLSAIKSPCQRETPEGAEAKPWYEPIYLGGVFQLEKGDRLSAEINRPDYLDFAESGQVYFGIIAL

| SMILES | IC50 [nM] |
| --- | --- |
| CC(C)C[C@@H]1NC(=O)[C@H](CCCNC(=N)N)NC(=O)[C@H](C(C)C)NC(=O)[C@@H]2CCCN2C(=O)[C@H](C(C)C)NC(=O)[C@@H](CCCNC(=N)NCc2ccc(O)c(O)c2)NC(=O)[C@H](CC(=O)O)NC(=O)[C@@H]2CCCN2C(=O)CN(C)C(=O)[C@H](Cc2ccc(-c3ccc(NC(=O)c4nn(CC(=O)O)c5ccccc45)cc3)cc2)NC(=O)[C@H](Cc2ccc(-c3ccccc3)cc2)NC(=O)[C@H](CN2CCOCC2)NC(=O)CSC[C@@H](C(=O)NCC(N)=O)NC1=O [Example 635] ({CH2CO}-[Ala(morpholin-4-yl)][Bip][Bip(4'-NH)](Indazole3carbonyl(1-CH2COOH))[Sar]PD[X68]VPVRLCG-NH2; thioether N-13) | < 50 |
| CC(C)C[C@@H]1NC(=O)[C@H](CCCNC(=N)N)NC(=O)[C@H](C(C)C)NC(=O)[C@@H]2CCCN2C(=O)[C@H](C(C)C)NC(=O)[C@@H](CCCNC(=N)NCCc2ccc3c(c2)OCO3)NC(=O)[C@H](CC(=O)O)NC(=O)[C@@H]2CCCN2C(=O)CN(C)C(=O)[C@H](Cc2ccc(-c3ccc(NC(=O)c4nn(CC(=O)O)c5ccccc45)cc3)cc2)NC(=O)[C@H](Cc2ccc(-c3ccc(C(=O)O)cc3)cc2)NC(=O)[C@H](CN2CCOCC2)NC(=O)CSC[C@@H](C(=O)NCC(N)=O)NC1=O [Example 409] ({CH2CO}-[Ala(morpholin-4-yl)][Bip(4'-COOH)][Bip(4'-NH)](Indazole3carbonyl(1-CH2COOH))[Sar]PD[X27]VPVRLCG-NH2; thioether N-13) | 50 to 200 |

same assay, conditions: HEK-Blue-CD40L cells, NF-kB-driven secreted alkaline phosphatase reporter; TNFα 0.5 ng/ml; 18 h; read-out: TNF induced HEK-Blue assay IC50 value

| SMILES | IC50 [nM] |
| --- | --- |
| CC(C)C[C@@H]1NC(=O)[C@H](Cc2ccc(CN)cc2)NC(=O)[C@H](C(C)C)NC(=O)[C@@H]2CCCN2C(=O)[C@H](C(C)C)NC(=O)[C@H](CCCNC(=N)N)NC(=O)[C@H](CC(=O)O)NC(=O)[C@@H]2CCCN2C(=O)CN(C)C(=O)[C@H](Cc2ccc(-c3ccccc3)cc2)NC(=O)[C@H](Cc2ccc(-c3ccccc3)cc2)NC(=O)[C@H](Cc2ccccc2)NC(=O)CSC[C@@H](C(=O)NCC(N)=O)NC1=O [Example 36] ({CH2CO}-F[Bip][Bip][Sar]PDRVPV[Phe(4-CH2NH2)]LCG-NH2; thioether N-13) | 200 to 2000 |
| CC(C)C[C@@H]1NC(=O)[C@H](Cc2ccc(O)cc2)NC(=O)[C@H](C(C)C)NC(=O)[C@@H]2CCN2C(=O)[C@H](C(C)C)NC(=O)[C@@H](CCCNC(=N)N)NC(=O)[C@H](CC(=O)O)NC(=O)[C@H](Cc2ccc(O)cc2)NC(=O)CN(C)C(=O)[C@H](Cc2ccc(-c3ccccc3)cc2)NC(=O)[C@H](Cc2ccc(-c3ccccc3)cc2)NC(=O)[C@H](CN2CCOCC2)NC(=O)CSC[C@@H](C(=O)NCC(N)=O)NC1=O [Example 79] ({CH2CO}-[Ala(morpholin-4-yl)][Bip][Bip][Sar]YD[dR]V[Aze]VYLCG-NH2; thioether N-13) | < 50 |
| CC(C)C[C@@H]1NC(=O)[C@H](Cc2ccc(O)cc2)NC(=O)[C@H](C(C)C)NC(=O)CNC(=O)[C@H](C(C)C)NC(=O)[C@H](CCCNC(=N)N)NC(=O)[C@H](CC(=O)O)NC(=O)[C@@H]2CCCN2C(=O)CN(C)C(=O)[C@H](Cc2ccc(-c3ccccc3)cc2)NC(=O)[C@H](Cc2ccc(-c3ccccc3)cc2)NC(=O)[C@H](CN2CCOCC2)NC(=O)CSC[C@@H](C(=O)NCC(N)=O)NC1=O [Example 139] ({CH2CO}-[Ala(morpholin-4-yl)][Bip][Bip][Sar]PDRVGVYLCG-NH2; thioether N-13) | 200 to 2000 |
| CC(C)C[C@@H]1NC(=O)[C@H](CCCNC(=N)N)NC(=O)[C@H](C(C)C)NC(=O)[C@@H]2CCCN2C(=O)[C@H](C(C)C)NC(=O)[C@@H](CCCNC(=N)N)NC(=O)[C@H](CC(=O)O)NC(=O)[C@@H]2CCCN2C(=O)CN(C)C(=O)[C@H](Cc2ccc(-c3ccc(NC(=O)c4ccc5c(ccn5CC(=O)O)c4)cc3)cc2)NC(=O)[C@H](Cc2ccc(-c3ccccc3)cc2)NC(=O)[C@H](CN2CCOCC2)NC(=O)CSC[C@@H](C(=O)NCC(N)=O)NC1=O [Example 398] ({CH2CO}-[Ala(morpholin-4-yl)][Bip][Bip(4'-NH)](X86)[Sar]PD[dR]VPVRLCG-NH2; thioether N-13) | < 50 |
| CC(C)C[C@@H]1NC(=O)[C@H](CCCNC(=N)N)NC(=O)[C@H](C(C)C)NC(=O)[C@@H]2CCCN2C(=O)[C@H](Cc2cccnc2)NC(=O)[C@H](CCCNC(=N)N)NC(=O)[C@H](CC(=O)O)NC(=O)[C@@H]2CCCN2C(=O)CN(C)C(=O)[C@H](Cc2ccc(-c3ccccc3)cc2)NC(=O)[C@H](Cc2ccc(-c3ccccc3)cc2)NC(=O)[C@H](Cc2ccccc2)NC(=O)CSC[C@@H](C(=O)NCC(N)=O)NC1=O [Example 26] ({CH2CO}-F[Bip][Bip][Sar]PDR[3Pal]PVRLCG-NH2; thioether N-13) | 200 to 2000 |
| CC(C)C[C@@H]1NC(=O)[C@H](CCCN)NC(=O)[C@H](C(C)C)NC(=O)[C@@H]2CCCN2C(=O)[C@H](C(C)C)NC(=O)[C@H](CCCNC(=N)N)NC(=O)[C@H](CC(=O)O)NC(=O)[C@@H]2CCCN2C(=O)CN(C)C(=O)[C@H](Cc2ccc(-c3ccccc3)cc2)NC(=O)[C@H](Cc2ccc(-c3ccccc3)cc2)NC(=O)[C@H](Cc2ccccc2)NC(=O)CSC[C@@H](C(=O)NCC(N)=O)NC1=O [Example 2] ({CH2CO}-F[Bip][Bip][Sar]PDRVPV[Orn]LCG-NH2; thioether N-13) | 200 to 2000 |
| CC(C)C[C@@H]1NC(=O)[C@H](CCCNC(=N)N)NC(=O)[C@H](C(C)C)NC(=O)[C@@H]2CCCN2C(=O)[C@H](CCc2ccncc2)NC(=O)[C@H](CCCNC(=N)N)NC(=O)[C@H](CC(=O)O)NC(=O)[C@@H]2CCCN2C(=O)CN(C)C(=O)[C@H](Cc2ccc(-c3ccccc3)cc2)NC(=O)[C@H](Cc2ccc(-c3ccccc3)cc2)NC(=O)[C@H](Cc2ccccc2)NC(=O)CSC[C@@H](C(=O)NCC(N)=O)NC1=O [Example 24] ({CH2CO}-F[Bip][Bip][Sar]PDR[h4Pal]PVRLCG-NH2; thioether N-13) | 200 to 2000 |

Second part, the compound after the results:

| IC50 [nM] | SMILES |
| --- | --- |
| < 50 | CC[C@H](C)[C@@H]1NC(=O)[C@@H](CCCNC(=N)N)NC(=O)[C@H](CC(=O)O)NC(=O)[C@H](Cc2cnc[nH]2)NC(=O)CN(C)C(=O)[C@H](Cc2ccc(-c3ccc(NC(C)=O)cc3)cc2)NC(=O)[C@H](Cc2ccc(-c3ccc(C(=O)O)cc3)cc2)NC(=O)[C@H](CC2CCCCC2)NC(=O)CSC[C@@H](C(=O)NCC(N)=O)NC(=O)[C@H](CC(C)C)NC(=O)[C@H](Cc2cnc[nH]2)NC(=O)[C@H](C(C)C)NC(=O)[C@@H]2CCCN2C1=O [Example 257] ({CH2CO}-[Cha][Bip(4'-COOH)][Bip(4'-NHAc)][Sar]HD[dR]IPVHLCG-NH2; thioether N-13) |
| 200 to 2000 | CC(=O)Nc1ccc(-c2ccc(C[C@@H]3NC(=O)[C@H](Cc4ccc(-c5ccc(C(=O)O)cc5)cc4)NC(=O)[C@H](CC4CCCCC4)NC(=O)CSC[C@@H](C(=O)NCC(N)=O)NC(=O)[C@H](CC(C)C)NC(=O)[C@H](Cc4cccc(CN)c4)NC(=O)[C@H](C(C)C)NC(=O)[C@@H]4CCCN4C(=O)[C@H](C(C)C)NC(=O)[C@@H](CCCNC(=N)N)NC(=O)[C@H](CC(=O)O)NC(=O)[C@@H]4CCCN4C(=O)CN(C)C3=O)cc2)cc1 [Example 254] ({CH2CO}-[Cha][Bip(4'-COOH)][Bip(4'-NHAc)][Sar]PD[dR]VPV[Phe(3-CH2NH2)]LCG-NH2; thioether N-13) |
| 200 to 2000 | CC(C)C[C@@H]1NC(=O)[C@H](Cc2ccc(O)cc2)NC(=O)[C@H](C(C)C)NC(=O)[C@@H]2CCCN2C(=O)[C@H](Cc2cccnc2)NC(=O)[C@H](CCCNC(=N)N)NC(=O)[C@H](CC(=O)O)NC(=O)[C@H](Cc2ccc(O)cc2)NC(=O)CN(C)C(=O)[C@H](Cc2ccc(-c3ccccc3)cc2)NC(=O)[C@H](Cc2ccc(-c3ccccc3)cc2)NC(=O)[C@H](CN2CCOCC2)NC(=O)CSC[C@@H](C(=O)NCC(N)=O)NC1=O [Example 115] ({CH2CO}-[Ala(morpholin-4-yl)][Bip][Bip][Sar]YDR[3Pal]PVYLCG-NH2; thioether N-13) |
| 50 to 200 | CC(=O)Nc1ccc(-c2ccc(C[C@@H]3NC(=O)[C@H](Cc4ccc(-c5ccc(C(=O)O)cc5)cc4)NC(=O)[C@H](CC4CCCCC4)NC(=O)CSC[C@@H](C(=O)NCC(N)=O)NC(=O)[C@H](CC(C)C)NC(=O)[C@H](Cc4cnc[nH]4)NC(=O)[C@H](C(C)C)NC(=O)[C@@H]4CCCN4C(=O)[C@H](CC(N)=O)NC(=O)[C@@H](CCCNC(=N)N)NC(=O)[C@H](CC(=O)O)NC(=O)[C@H](Cc4ccc(O)cc4)NC(=O)CN(C)C3=O)cc2)cc1 [Example 248] ({CH2CO}-[Cha][Bip(4'-COOH)][Bip(4'-NHAc)][Sar]YD[dR]NPVHLCG-NH2; thioether N-13) |
| < 50 | CC[C@H](C)[C@@H]1NC(=O)[C@@H](CCCNC(=N)NCc2cccc(CO)c2)NC(=O)[C@H](CC(=O)O)NC(=O)[C@H](Cc2cnc[nH]2)NC(=O)CN(C)C(=O)[C@H](Cc2ccc(-c3ccc(NC(=O)c4cccc(CC(=O)O)c4)cc3)cc2)NC(=O)[C@H](Cc2ccc(-c3ccccc3)cc2)NC(=O)[C@H](CC2CCCCC2)NC(=O)CSC[C@@H](C(=O)NCC(N)=O)NC(=O)[C@H](CC(C)C)NC(=O)[C@H](Cc2c[nH]cn2)NC(=O)[C@H](C(C)C)NC(=O)[C@@H]2CCCN2C1=O [Example 504] ({CH2CO}-[Cha][Bip][Bip(4'-NHCO-C6H4-3-CH2COOH)][Sar]HD[dArg(ω-Bn(3-CH2OH))]IPVHLCG-NH2; thioether N-13) |
| 50 to 200 | CC(=O)Nc1ccc(-c2ccc(C[C@@H]3NC(=O)[C@H](Cc4ccc(-c5ccccc5)cc4)NC(=O)[C@H](C(C)(C)O)NC(=O)CSC[C@@H](C(=O)NCC(N)=O)NC(=O)[C@H](CC(C)C)NC(=O)[C@H](Cc4cnc[nH]4)NC(=O)[C@H](C(C)C)NC(=O)[C@@H]4CCCN4C(=O)[C@H](C(C)C)NC(=O)[C@@H](CCCNC(=N)N)NC(=O)[C@H](CC(=O)O)NC(=O)[C@H](Cc4ccccn4)NC(=O)CN(C)C3=O)cc2)cc1 [Example 518] ({CH2CO}-[Val(3-OH)][Bip][Bip(4'-NHAc)][Sar][2Pal]D[dR]VPVHLCG-NH2; thioether N-13) |
| 50 to 200 | Cc1ccc(C[C@@H]2NC(=O)[C@H](C(C)C)NC(=O)[C@@H]3CCCN3C(=O)[C@H](C(C)C)NC(=O)[C@@H](CCCNC(=N)N)NC(=O)[C@H](CC(=O)O)NC(=O)[C@H](Cc3ccc(O)cc3)NC(=O)CN(C)C(=O)[C@H](Cc3ccc(-c4ccccc4)cc3)NC(=O)[C@H](Cc3ccc(-c4ccccc4)cc3)NC(=O)[C@H](CN3CCOCC3)NC(=O)CSC[C@@H](C(=O)NCC(N)=O)NC(=O)[C@H](CC(C)C)NC2=O)cc1 [Example 152] ({CH2CO}-[Ala(morpholin-4-yl)][Bip][Bip][Sar]YD[dR]VPV[Phe(4-Me)]LCG-NH2; thioether N-13) |
